This passage reports IC50 results from ChEMBL document CHEMBL4422627, “Discovery of potent, orally bioavailable ERK1/2 inhibitors with isoindolin-1-one structure by structure-based drug design” (Eur J Med Chem, 2019).

pIC50: −log10 of the molar value.

The target in this assay is Mitogen-activated protein kinase 1 (Homo sapiens, UniProt P28482). As to the kind of experiment: Inhibition of ERK2 (unknown origin) using […] as substrate after 40 mins by ADP-Glo luminescence assay.
Chain of Mitogen-activated protein kinase 1 (P28482 whole entry): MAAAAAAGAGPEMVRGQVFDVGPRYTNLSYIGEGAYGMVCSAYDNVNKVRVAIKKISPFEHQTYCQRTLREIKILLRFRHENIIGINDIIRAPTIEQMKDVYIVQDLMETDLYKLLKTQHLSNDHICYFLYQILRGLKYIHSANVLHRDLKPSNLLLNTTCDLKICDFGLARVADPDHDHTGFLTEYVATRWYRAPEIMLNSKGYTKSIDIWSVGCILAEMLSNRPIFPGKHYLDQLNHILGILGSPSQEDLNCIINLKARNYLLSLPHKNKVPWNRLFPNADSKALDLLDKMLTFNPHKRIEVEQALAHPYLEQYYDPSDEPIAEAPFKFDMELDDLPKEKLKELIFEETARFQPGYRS
On to `O=C1c2cc(-c3ccnc(NC4CCOCC4)n3)ccc2CN1[C@@H](CO)c1cccc(Cl)c1`, for which the pIC50 is 6.70.

`O=C1c2cc(-c3ccnc(Nc4ccncc4)n3)ccc2CN1Cc1cccc(Cl)c1` had a pIC50 of 7.44.

`O=C1c2cc(-c3ccnc(NC4CCOCC4)n3)ccc2CN1Cc1ccc(Cl)c(F)c1` showed a pIC50 of 7.75.

`O=C1c2cc(-c3ccnc(NC4CCOCC4)n3)ccc2CN1Cc1ccc(F)c(Cl)c1`: the pIC50 is 8.54.

For the compound `O=C1c2cc(-c3ccnc(NC4CCCCC4)n3)ccc2CN1C(CO)c1cccc(Cl)c1` (centres undefined), the pIC50 was 8.14.

Take `O=C1c2cc(-c3ccnc(NC4CCNCC4)n3)ccc2CN1C(CO)c1cccc(Cl)c1` (centres undefined): the negative logarithm of the IC50 (pIC50) was < 6.00.

Consider `O=C1c2cc(-c3ccnc(NC4CCOCC4)n3)ccc2CN1[C@H](CO)c1cccc(Cl)c1`, for which the negative-log IC50 (pIC50) was 9.10.

Take `CC(C)Nc1nccc(-c2ccc3c(c2)C(=O)N(C(CO)c2cccc(Cl)c2)C3)n1` (centres undefined): the negative logarithm of the IC50 (pIC50) is 7.95.

Take `O=C1c2cc(-c3ccnc(NC4CCOCC4)n3)ccc2CN1C(CO)c1ccc(Cl)cc1` (centres undefined): the pIC50 is 7.52.

The pIC50 is the negative decadic logarithm of the IC50, by convention in mol/L. Low readings indicate a high IC50, high ones a low IC50.
